The source of these data is patent US11643782B2, “Method for controlling growth of microorganisms and/or biofilms in an industrial process” (Kemira Oyj, priority 2017, dated 2023).

What all share (assay type): cell-based
The test system of test [1] is Meiothermus silvanus biofilms. Nature of the test: Prevention of biofilm formation (96-microwell peg-lid plates, Crystal Violet staining). Conditions: for Biofilm quantity, Abs. at 595 nm / Biofilm reduction: 48 h contact time. The text has this: (§1) Pure cultures of Meiothermus silvanus, a microbe species commonly found in paper machine biofilms (Ekman J, Journal of Industrial Microbiology & Biotechnology 34:203-211) and Pseudoxanthomonas taiwanensis, another species commonly found in paper machine environments (Desjardins, E & Beaulieu, C, Journal of Industrial Microbiology & Biotechnology 30:141-145) were used to study the efficacy of various chemicals to prevent biofilm formation.
(§2) Biofilm tests were done in either synthetic commercial R2-broth (Lab M Ltd, UK) or fibre-containing synthetic paper machine water, SPW (prepared according to Peltola, et al., J. Ind. Microbiol. Biotechnol. 2011, 38: 1719-1727) using 96-microwell plate wells with peg lids (Thermo Fischer Scientific Inc., USA). Plates were incubated at 45° C. with a rotary shaking (150 rpm) providing high flow in each well.
(§3) For experiments of preventing biofilm formation wells of 96-microwell plates with peg-lids were filled with R2-broth or SPW, inoculated with the pure bacterial cultures and treated with different amounts of chemical compounds to be tested. Peg-lid was put on. After 24 hours the wells were emptied and a fresh solution of pure culture containing SPW or R2 broth with different amounts of test chemicals were added to the wells and the original peg-lid was put back in place. After an additional 24 hours, i.e. 48 hours after starting the test, the wells were emptied, rinsed and the peg lid and wells were left to dry.
(§4) The amount of biofilm formed on the microwells and peg surfaces was quantified with a staining solution by adding 200 μl of 1% Crystal Violet (Merck Millipore KGaA, Germany) in methanol to each well and placing the peg-lid back on. After 3 minutes the wells were emptied and the wells and pegs were rinsed 3 times with tap water. The attached Crystal Violet was dissolved into ethanol and the absorbance at 595 nm was measured. The values shown in the following tables are average absorbance from 8 replicate wells and pegs.
(§5) All absorbance values in Examples 1-8 are given actual measured values. In calculation for biofilm reduction percentages it was taken in account that the SPW alone for 2 days without any bacterial inoculum gave a background value of 0.14.

Test [2] has as its system Pseudoxanthomonas taiwanensis biofilms. The experiment in a line: Removal of existing (preformed) biofilm (96-microwell peg-lid plates, Crystal Violet staining). Conditions: for Biofilm quantity, Abs. at 595 nm / Biofilm reduction: SPW, 45° C., 150 rpm, 24 h pre-growth and 24 h contact time; for Removal of already formed biofilms (in words): synthetic paper machine water, high temperature, fibres present, high flow.
Text: as §1, §2
(§6) For experiments of removing already existing (preformed) biofilm wells of 96-microwell plates with peg-lids were filled with SPW, inoculated with the pure bacterial cultures. Biofilm was grown for 24 hours without addition of any chemical compound to be tested. In some experiments after 24 hours the procedure was repeated by emptying the wells and by addition of a fresh solution of SPW inoculated with pure bacterial culture, again without any test chemical compound. The original peg-lid was put back in place and biofilm was allowed to grow for additional 24 h, i.e. in total 48 h.
(§7) After 24 or 48 hours after starting the test, the wells were emptied and a fresh solution of SPW, inoculated with the pure bacterial cultures and with different amounts of chemical compounds to be tested were added and the original peg-lid was placed back in place. After an additional 2 or 24 hours the wells were emptied, rinsed and the peg lid and wells were left to dry.
as §4, §5

The subject of test [3] is Meiothermus silvanus biofilms. The description is as above. The note with it: for Biofilm quantity, Abs. at 595 nm / Biofilm reduction: SPW, 45° C., 150 rpm, 24 h pre-growth and 24 h contact time.
Text: as §1, §2, §6, §7, §4, §5

Test [4] concerns Pseudoxanthomonas taiwanensis biofilms. The experiment in a line: Prevention of biofilm formation (96-microwell peg-lid plates, Crystal Violet staining). The note with it: for Biofilm quantity, Abs. at 595 nm / Biofilm reduction / Biofilm quantity, Abs at 595 nm: 48 h contact time.
Text: as §1, §2, §3, §4, §5

Setting [5] is: Table 5, dosage 0.06 mg/l active compound, SPW, 45° C., 150 rpm.
Where [6] appears, read: Table 5, dosage 0.2 mg/l active compound, SPW, 45° C., 150 rpm.
Where [7] appears, read: Table 9, dosage 0.2 mg/l active compound.
The mark [8] stands for this setting: Table 9, dosage 0.4 mg/l active compound.
Setting [9] is: Table 7, dosage 0.2 mg/l active compound.
Where [10] appears, read: Table 7, dosage 0.6 mg/l active compound.
Setting [11] is: Table 6, dosage 0.06 mg/l active compound, SPW, 45° C., 150 rpm.
[12] abbreviates: Table 6, dosage 0.2 mg/l active compound, SPW, 45° C., 150 rpm.
Setting [13] is: dosage 0.2 mg/l active compound.
Setting [14] is: dosage 0.6 mg/l active compound.
[15] abbreviates: active compound, synthetic paper machine water, high temperature, fibres present, high flow.
[16] abbreviates: dosage 0.2 mg/l active ingredient, SPW, 45° C., 150 rpm.
Setting [17] is: dosage 0.6 mg/l active ingredient, SPW, 45° C., 150 rpm.
Where [18] appears, read: dosage 1 mg/l active ingredient, SPW, 45° C., 150 rpm.

For the compound `N#C/C=C/S(=O)(=O)c1ccccc1` [Compound C, (2E)-3-phenylsulphonyl-2-propenenitrile], the “Biofilm quantity, Abs. at 595 nm” value in test [1] (setting [5]) is 0.64; in test [1] (setting [6]) it was 0.15; in test [2] (setting [7]), 0.15; in test [2] (setting [8]), 0.15. The Biofilm reduction in test [1] (setting [5]) came to 29.7%; in test [1] (setting [6]), 98.2%; in test [2] (setting [7]), 98.5%; in test [2] (setting [8]), 99.0%. The “Removal of already formed biofilms (in words)” value (“Removal” below) in test [2] is given as “remove already formed biofilms”.
For the compound `Cc1cc(C)c(S(=O)(=O)/C=C/C#N)c(C)c1` [Compound D, (2E)-3-[(2,4,6-trimethylphenyl)sulphonyl]-2-propenenitrile], the figures for the “Biofilm quantity, Abs. at 595 nm” value in test [2] (setting [9]) and in test [2] (setting [10]) were 2.07 and 0.18, respectively. Besides, the Biofilm reduction was 8.4% in test [2] (setting [9]) and 97.9% in test [2] (setting [10]). Besides, the “Removal” value in test [2] is “remove already formed biofilms”.
On to `N#C/C=C/S(=O)(=O)c1ccc(C(F)(F)F)cc1` [Compound E, (2E)-3-[(4-trifluormethylphenyl)sulphonyl]-2-propenenitrile], for which, in test [1] (setting [11]), the “Biofilm quantity, Abs. at 595 nm” value is reported as 1.43 and the Biofilm reduction is on record as 38.8%. In test [1] (setting [12]), the “Biofilm quantity, Abs. at 595 nm” value was 0.14 and the Biofilm reduction turned out to be 99.6%.
For `COc1ccc(S(=O)(=O)/C=C/C#N)cc1` [Compound F, (2E)-3-[(4-methoxyphenyl)sulphonyl]-2-propenenitrile], in test [3] (setting [13]), the “Biofilm quantity, Abs. at 595 nm” value amounted to 1.21 and the Biofilm reduction amounted to 6.4%. For the same compound, in test [3] (setting [14]), the “Biofilm quantity, Abs. at 595 nm” value is on record as 0.86 and the Biofilm reduction is reported as 37.3%. In addition, in test [3] (synthetic paper machine water, high temperature, fibres present, high flow), the “Removal” value is “remove already formed biofilms”.
As for `N#CC(Br)(Br)C(N)=O` [DBNPA, 2,2-dibromo-3-nitrilopropionamide], the “Dosage required to reach acceptable or noticable biofilm reduction efficacy” value in test [1] (setting [15]) and in test [4] (setting [15]) was 1 mg/I throughout. The “Biofilm quantity, Abs. at 595 nm” value is listed as 0.57 in test [1] (setting [16]); 0.35 in test [1] (setting [17]); 0.15 in test [1] (setting [18]); 1.46 in test [4] (setting [16]); 1.23 in test [4] (setting [17]); 0.14 in test [4] (setting [18]). For the same compound, the Biofilm reduction is 16.9% in test [1] (setting [16]); 60.7% in test [1] (setting [17]); 98.8% in test [1] (setting [18]); 12.6% in test [4] (setting [16]); 27.8% in test [4] (setting [17]); 99.9% in test [4] (setting [18]).
Turning to Gramicidin, the “Biofilm quantity, Abs. at 595 nm” value is on record as 1.40 in test [1] (dosage 0.2 mg/l, R2-broth); 1.33 in test [1] (dosage 0.2 mg/l, SPW); 0.66 in test [1] (dosage 1 mg/l, R2-broth); 1.41 in test [1] (dosage 1 mg/l, SPW); 0.17 in test [1] (dosage 3 mg/l, R2-broth); 0.45 in test [1] (dosage 3 mg/l, SPW). Besides, the “Biofilm quantity, Abs. at 595 nm” value is given as 0.14 in test [1] (dosage 10 mg/l, R2-broth); 0.19 in test [1] (dosage 10 mg/l, SPW); 2.80 in test [4] (dosage 3 mg/l, R2-broth); 2.55 in test [4] (dosage 10 mg/l, R2-broth); 0.19 in test [4] (dosage 25 mg/l, R2-broth). The Biofilm reduction is on record as 13.7% in test [1] (dosage 0.2 mg/l, R2-broth); 2.5% in test [1] (dosage 0.2 mg/l, SPW); 64.4% in test [1] (dosage 1 mg/l, R2-broth); −4.1% in test [1] (dosage 1 mg/l, SPW); 97.9% in test [1] (dosage 3 mg/l, R2-broth); 74.6% in test [1] (dosage 3 mg/l, SPW). The Biofilm reduction in test [1] (dosage 10 mg/l, R2-broth) is reported as 100.0%; in test [1] (dosage 10 mg/l, SPW), 95.9%; in test [4] (dosage 3 mg/l, R2-broth) it was −0.8%; in test [4] (dosage 3 mg/l, SPW), 5.4%; in test [4] (dosage 10 mg/l, R2-broth) it was 8.7%; in test [4] (dosage 10 mg/l, SPW), −1.8%. The Biofilm reduction in test [4] (dosage 25 mg/l, R2-broth) is on record as 98.1%; in test [4] (dosage 25 mg/l, SPW), −2.2%. For the same compound, the “Biofilm quantity, Abs at 595 nm” value worked out at 2.25 in test [4] (dosage 3 mg/l, SPW); 2.41 in test [4] (dosage 10 mg/l, SPW); 2.42 in test [4] (dosage 25 mg/l, SPW).
